These molecules were tested on FaDu (assay: Cytotoxic activity against human FADU cancer stem cells incubated for 72 hrs by Cell-titer-Glo luminescence assay). Details: not given.
Assay type: functional, cell-based

| SMILES | IC50 [µM] |
| --- | --- |
| CCN(CC)CCNC(=O)c1c(C)[nH]c(/C=C2\C(=O)Nc3ccc(-c4ccc(C#N)c(F)c4)cc32)c1C | 3.48 |
| CCN(CC)CCNC(=O)c1c(C)[nH]c(/C=C2\C(=O)Nc3cc(-c4cccc5ncccc45)ccc32)c1C | 2.64 |
| CCN(CC)CCNC(=O)c1c(C)[nH]c(/C=C2\C(=O)Nc3ccc(-c4cnc5cn[nH]c5c4)cc32)c1C | 0.16 |
| CCN(CC)CCN(C)C(=O)c1c(C)[nH]c(/C=C2\C(=O)Nc3ccc(-c4csc(-c5ccccc5)n4)cc32)c1C | 3.6 |
| CCN(CC)CCNC(=O)c1c(C)[nH]c(/C=C2\C(=O)Nc3ccc(-c4csc(-n5ccnc5)n4)cc32)c1C | 21.7 |
| CCN(CC)CCNC(=O)c1c(C)[nH]c(/C=C2\C(=O)Nc3ccc(-c4cnsc4)cc32)c1C | 3.42 |
| CCN(CC)CCNC(=O)c1c(C)[nH]c(/C=C2\C(=O)Nc3ccc(-c4ccc(C)cn4)cc32)c1C | 0.22 |
| CCN(CC)CCNC(=O)c1c(C)[nH]c(/C=C2\C(=O)Nc3cc(-c4cnc5ccccc5n4)ccc32)c1C | 2.24 |
| Cc1ccc(-c2nc(-c3ccc4c(c3)/C(=C/c3[nH]c(C)c(C(=O)NCCN5CCCC5)c3C)C(=O)N4)cs2)cc1 | 0.31 |
| CCN(CC)CCNC(=O)c1c(C)[nH]c(/C=C2\C(=O)Nc3ccc(-c4ncccc4OC)cc32)c1C | 0.07 |

What follows are molecules tested on A549 (assay: Cytotoxic activity against human A549 bulk cells incubated for 72 hrs by Cell-titer-Glo luminescence assay). Details: A549, 72 h.
Assay type: functional, cell-based

| SMILES | IC50 [µM] |
| --- | --- |
| CCN(CC)CCNC(=O)c1c(C)[nH]c(/C=C2\C(=O)Nc3ccc(-c4ccc(C#N)c(F)c4)cc32)c1C | 14.5 |
| CCN(CC)CCNC(=O)c1c(C)[nH]c(/C=C2\C(=O)Nc3cc(-c4cccc5ncccc45)ccc32)c1C | 2.88 |
| CCN(CC)CCNC(=O)c1c(C)[nH]c(/C=C2\C(=O)Nc3ccc(-c4cnc5cn[nH]c5c4)cc32)c1C | 3.24 |
| CCN(CC)CCN(C)C(=O)c1c(C)[nH]c(/C=C2\C(=O)Nc3ccc(-c4csc(-c5ccccc5)n4)cc32)c1C | 9.94 |
| CCN(CC)CCNC(=O)c1c(C)[nH]c(/C=C2\C(=O)Nc3ccc(-c4csc(-n5ccnc5)n4)cc32)c1C | 6.16 |
| CCN(CC)CCNC(=O)c1c(C)[nH]c(/C=C2\C(=O)Nc3ccc(-c4cnsc4)cc32)c1C | 3.79 |
| CCN(CC)CCNC(=O)c1c(C)[nH]c(/C=C2\C(=O)Nc3ccc(-c4ccc(C)cn4)cc32)c1C | 6.51 |
| CCN(CC)CCNC(=O)c1c(C)[nH]c(/C=C2\C(=O)Nc3cc(-c4cnc5ccccc5n4)ccc32)c1C | 7.07 |
| Cc1ccc(-c2nc(-c3ccc4c(c3)/C(=C/c3[nH]c(C)c(C(=O)NCCN5CCCC5)c3C)C(=O)N4)cs2)cc1 | 5.99 |
| CCN(CC)CCNC(=O)c1c(C)[nH]c(/C=C2\C(=O)Nc3ccc(-c4ncccc4OC)cc32)c1C | 7.48 |

The molecules below were run on A549 (assay: Cytotoxic activity against human A549 cancer stem cells incubated for 72 hrs by Cell-titer-Glo luminescence assay). Details: A549, 72 h.
Assay type: functional, cell-based

| SMILES | IC50 [µM] |
| --- | --- |
| CCN(CC)CCNC(=O)c1c(C)[nH]c(/C=C2\C(=O)Nc3ccc(-c4ccc(C#N)c(F)c4)cc32)c1C | 12 |
| CCN(CC)CCNC(=O)c1c(C)[nH]c(/C=C2\C(=O)Nc3cc(-c4cccc5ncccc45)ccc32)c1C | 8.61 |
| CCN(CC)CCNC(=O)c1c(C)[nH]c(/C=C2\C(=O)Nc3ccc(-c4cnc5cn[nH]c5c4)cc32)c1C | 26.4 |
| CCN(CC)CCN(C)C(=O)c1c(C)[nH]c(/C=C2\C(=O)Nc3ccc(-c4csc(-c5ccccc5)n4)cc32)c1C | 10.5 |
| CCN(CC)CCNC(=O)c1c(C)[nH]c(/C=C2\C(=O)Nc3ccc(-c4csc(-n5ccnc5)n4)cc32)c1C | 18.8 |
| CCN(CC)CCNC(=O)c1c(C)[nH]c(/C=C2\C(=O)Nc3ccc(-c4cnsc4)cc32)c1C | 6.66 |
| CCN(CC)CCNC(=O)c1c(C)[nH]c(/C=C2\C(=O)Nc3ccc(-c4ccc(C)cn4)cc32)c1C | 3.38 |
| CCN(CC)CCNC(=O)c1c(C)[nH]c(/C=C2\C(=O)Nc3cc(-c4cnc5ccccc5n4)ccc32)c1C | 42.6 |
| Cc1ccc(-c2nc(-c3ccc4c(c3)/C(=C/c3[nH]c(C)c(C(=O)NCCN5CCCC5)c3C)C(=O)N4)cs2)cc1 | 12.2 |
| CCN(CC)CCNC(=O)c1c(C)[nH]c(/C=C2\C(=O)Nc3ccc(-c4ncccc4OC)cc32)c1C | 6.84 |

What follows are molecules tested on ACHN (assay: Cytotoxic activity against human ACHN bulk cells incubated for 72 hrs by Cell-titer-Glo luminescence assay). Details: not given.
Assay type: functional, cell-based

| SMILES | IC50 [µM] |
| --- | --- |
| CCN(CC)CCNC(=O)c1c(C)[nH]c(/C=C2\C(=O)Nc3ccc(-c4ccc(C#N)c(F)c4)cc32)c1C | 13.3 |
| CCN(CC)CCNC(=O)c1c(C)[nH]c(/C=C2\C(=O)Nc3cc(-c4cccc5ncccc45)ccc32)c1C | 2.66 |
| CCN(CC)CCNC(=O)c1c(C)[nH]c(/C=C2\C(=O)Nc3ccc(-c4cnc5cn[nH]c5c4)cc32)c1C | 2.74 |
| CCN(CC)CCN(C)C(=O)c1c(C)[nH]c(/C=C2\C(=O)Nc3ccc(-c4csc(-c5ccccc5)n4)cc32)c1C | 11.3 |
| CCN(CC)CCNC(=O)c1c(C)[nH]c(/C=C2\C(=O)Nc3ccc(-c4csc(-n5ccnc5)n4)cc32)c1C | 9.57 |
| CCN(CC)CCNC(=O)c1c(C)[nH]c(/C=C2\C(=O)Nc3ccc(-c4cnsc4)cc32)c1C | 4.58 |
| CCN(CC)CCNC(=O)c1c(C)[nH]c(/C=C2\C(=O)Nc3ccc(-c4ccc(C)cn4)cc32)c1C | 2.92 |
| CCN(CC)CCNC(=O)c1c(C)[nH]c(/C=C2\C(=O)Nc3cc(-c4cnc5ccccc5n4)ccc32)c1C | 10.9 |
| Cc1ccc(-c2nc(-c3ccc4c(c3)/C(=C/c3[nH]c(C)c(C(=O)NCCN5CCCC5)c3C)C(=O)N4)cs2)cc1 | 2.32 |
| CCN(CC)CCNC(=O)c1c(C)[nH]c(/C=C2\C(=O)Nc3ccc(-c4ncccc4OC)cc32)c1C | 7.14 |

Each molecule was assayed on ACHN (assay: Cytotoxic activity against human ACHN cancer stem cells incubated for 72 hrs by Cell-titer-Glo luminescence assay). Details: not given.
Assay type: functional, cell-based

| SMILES | IC50 [µM] |
| --- | --- |
| CCN(CC)CCNC(=O)c1c(C)[nH]c(/C=C2\C(=O)Nc3ccc(-c4ccc(C#N)c(F)c4)cc32)c1C | 1.71 |
| CCN(CC)CCNC(=O)c1c(C)[nH]c(/C=C2\C(=O)Nc3cc(-c4cccc5ncccc45)ccc32)c1C | 0.42 |
| CCN(CC)CCNC(=O)c1c(C)[nH]c(/C=C2\C(=O)Nc3ccc(-c4cnc5cn[nH]c5c4)cc32)c1C | 10.8 |
| CCN(CC)CCN(C)C(=O)c1c(C)[nH]c(/C=C2\C(=O)Nc3ccc(-c4csc(-c5ccccc5)n4)cc32)c1C | 0.69 |
| CCN(CC)CCNC(=O)c1c(C)[nH]c(/C=C2\C(=O)Nc3ccc(-c4csc(-n5ccnc5)n4)cc32)c1C | 2.99 |
| CCN(CC)CCNC(=O)c1c(C)[nH]c(/C=C2\C(=O)Nc3ccc(-c4cnsc4)cc32)c1C | 0.64 |
| CCN(CC)CCNC(=O)c1c(C)[nH]c(/C=C2\C(=O)Nc3ccc(-c4ccc(C)cn4)cc32)c1C | 1.16 |
| CCN(CC)CCNC(=O)c1c(C)[nH]c(/C=C2\C(=O)Nc3cc(-c4cnc5ccccc5n4)ccc32)c1C | 6.97 |
| Cc1ccc(-c2nc(-c3ccc4c(c3)/C(=C/c3[nH]c(C)c(C(=O)NCCN5CCCC5)c3C)C(=O)N4)cs2)cc1 | 0.14 |
| CCN(CC)CCNC(=O)c1c(C)[nH]c(/C=C2\C(=O)Nc3ccc(-c4ncccc4OC)cc32)c1C | 1.41 |

These molecules were tested on FaDu (assay: Cytotoxic activity against human FADU bulk cells incubated for 72 hrs by Cell-titer-Glo luminescence assay). Details: not given.
Assay type: functional, cell-based

| SMILES | IC50 [µM] |
| --- | --- |
| CCN(CC)CCNC(=O)c1c(C)[nH]c(/C=C2\C(=O)Nc3ccc(-c4ccc(C#N)c(F)c4)cc32)c1C | 14 |
| CCN(CC)CCNC(=O)c1c(C)[nH]c(/C=C2\C(=O)Nc3cc(-c4cccc5ncccc45)ccc32)c1C | 4.83 |
| CCN(CC)CCNC(=O)c1c(C)[nH]c(/C=C2\C(=O)Nc3ccc(-c4cnc5cn[nH]c5c4)cc32)c1C | 1.49 |
| CCN(CC)CCN(C)C(=O)c1c(C)[nH]c(/C=C2\C(=O)Nc3ccc(-c4csc(-c5ccccc5)n4)cc32)c1C | 18.3 |
| CCN(CC)CCNC(=O)c1c(C)[nH]c(/C=C2\C(=O)Nc3ccc(-c4csc(-n5ccnc5)n4)cc32)c1C | 5.57 |
| CCN(CC)CCNC(=O)c1c(C)[nH]c(/C=C2\C(=O)Nc3ccc(-c4cnsc4)cc32)c1C | 3.17 |
| CCN(CC)CCNC(=O)c1c(C)[nH]c(/C=C2\C(=O)Nc3ccc(-c4ccc(C)cn4)cc32)c1C | 3.05 |
| CCN(CC)CCNC(=O)c1c(C)[nH]c(/C=C2\C(=O)Nc3cc(-c4cnc5ccccc5n4)ccc32)c1C | 7.45 |
| Cc1ccc(-c2nc(-c3ccc4c(c3)/C(=C/c3[nH]c(C)c(C(=O)NCCN5CCCC5)c3C)C(=O)N4)cs2)cc1 | 4.22 |
| CCN(CC)CCNC(=O)c1c(C)[nH]c(/C=C2\C(=O)Nc3ccc(-c4ncccc4OC)cc32)c1C | 2.63 |

Source: ChEMBL document CHEMBL3727348, “3-(aryl or heteroaryl) methyleneindolin-2-one derivatives as inhibitors of cancer stem cell pathway kinases for the treatment of cancer” (2014)
